Laboratory results as given in patent US20140171475A1, “ANIMAL ECTOPARASITE-CONTROLLING AGENT” (SUMITOMO CHEMICAL COMPANY, LIMITED, priority 2011, published 2014).
Like-named read-outs stand apart in the source and are kept apart here.

What was measured:
Type in all cases: in vivo
[1] = tested on: Haemaphysalis longicornis (young ticks) on mouse; experiment: Dropping application against mouse-infested ticks; conditions: topical, 48 h, 0.1% w/v solution, 200 μL dropwise to whole body surface of mouse, 2 days after application, read-out: Mortality
Procedure: The previous day of a dropping application, 30 test ticks (Haemaphysalis longicornis, young ticks) were deposited on a mouse. Before the dropping application, uninfested ticks were removed.
Any one of the present benzylamide compounds (12), (13), (15), (28), (29), (30), (31), (32), (33), (34), (36), (37) and (38) (5 mg) was dissolved in a mixture (5 mL) of propylene carbonate and diethylene glycol monoethyl ether in equal volume to prepare a 0.1% w/v solution. Said solution (200 μL) was applied dropwise to the whole body surface of a mouse with a pipette. To a control group, the mixture (200 μL) alone was applied. Said application was repeated 3 times per group.
Two (2) days after the application, the number of dead ticks was examined and the mortality was calculated by the following formula:
Mortality (%)=100×(number of dead ticks/infested ticks before dropping application)

[2] = tested on: Haemaphysalis longicornis (non-blood-fed young ticks); experiment: Pesticidal activity on ticks, dry film contact application test; conditions: 48 h
Procedure: Any one of the present benzylamide compounds (12), (13), (15), (28), (29), (30), (31), (32), (33), (34), (37) and (38) (16 μg) was dissolved in acetone (0.2 mL), and into a screw bottle (20 mL volume) this solution was dropwised and capped the bottle. Then the capped-bottle was made rolling so that the inner-surface of the screw bottle was uniformly coated with the solution. The acrew bottle was capped off and allowed to dry up for 2 hours. Into the screw bottle, test ticks (Haemaphysalis longicornis, non-blood-fed young ticks, 10 ticks/group) were added, and capped the bottle. Two (2) days later, the number of dead ticks was examined and the mortality was calculated by the following formula:
Mortality (%)=100×(number of dead ticks/number of ticks tested)

[3] = tested on: Haemaphysalis longicornis (young ticks) on dog (beagle); experiment: Dropping application against dog-infested ticks; conditions: dropping application 20 mg/kg
Procedure: The previous day of a dropping application, 100 test ticks (Haemaphysalis longicornis, young ticks) were deposited on a dog (beagle). Before the dropping application, infested ticks were counted.
(§1) The present hydrazide compound (13) (1.5 g) was dissolved in diethylene glycol monoethyl ether (6.0 g) to prepare a test solution. Said test solution was directly dropped on the skin of the neck and back of the dog while pushing aside fur thereon at a rate of 0.1 ml per 1 kg of the dog's body weight (dose amount: 20 mg/kg). This is referred to as a test group. On the other hand, diethylene glycol monoethyl ether alone was applied dropwise to a placebo group.
Two (2) days after the application, the number of living ticks, which were infesting the dogs, was examined. When the examination was completed, all infested ticks were removed from the dogs.
(§2) Both of Forty (14) days and 28 days after the application, 100 test ticks (Haemaphysalis longicornis, young ticks) were repeatedly deposited on a dog (beagle) respectively. Two (2) days after the repeated deposition, the number of living ticks, which were infesting the dogs, was examined respectively. When each of the examination was completed, all infested ticks were removed from the dogs.
(§3) The infestation rate and control rate were calculated by the following formulae: […]
(§4) Method of calculating infestation rate and control rate at the initial stage (2 days) after the application:
(§5) Infestation rate (%) at X days after application=(number of living ticks at X days/number of living ticks before application)×100
(§6) Control rate (%) at X days after application {(infestation rate of test group before application infestation rate of test group at X days)/infestation rate of test group before application}×100
(§7) Method of calculating infestation rate and control rate at both 16 days and 30 days after the application:
Infestation rate (%) at X days after application=(number of living ticks at X days/number of living ticks repeatedly deposited)×100 […]

[4] = tested on: Haemaphysalis longicornis (young ticks) on dog (beagle); experiment: Oral administration against dog-infested ticks; conditions: oral gelatin capsule 40 mg/kg
Procedure: The previous day of an oral administration, 100 test ticks (Haemaphysalis longicornis, young ticks) were deposited on a dog (beagle). Before the oral administration, infested ticks were counted.
A gelatin capsule in which the present benzylamide compound (13) was filled into a gelatin capsule so that the amount of the present benzylamide compound […] administered was 40 mg per 1 kg of the dog's body weight was orally administered to the dog conpulsively. This is referred to as a test group. On the other hand, a geratin capsule alone was orally administered to a placebo group.
Two (2) days after the oral administration, the number of living ticks, which were infesting the dogs, was examined. When the examination was completed, all infested ticks were removed from the dogs.
as §3, §4, §5
Control rate (%) at X days after application {(infestation rate of test group before application−infestation rate of test group at X days)/infestation rate of test group before application}×100 […]

[5] = tested on: Ctenocephalides felies fleas on mouse; experiment: Oral administration against mouse-infested fleas; conditions: test solution 20 mg/10 mL at 10 mL per 1 kg mouse body weight, 2 days after flea deposition
Procedure: (§8) The present benzylamide compound (13) (20 mg) was dissolved in dimethylformamide (680 mg), and thereto a corn oil was added to prepare a test solution (10 mL). Said test solution was orally administered to the mouse at the rate of 10 mL per 1 kg of the body weight of the mouse with a gastric sonde. To a control group, a 7% dimethylformamide/corn oil solution alone was orally administered. Each administration was repeated 3 times per group. After the administration, 20 test fleas (Ctenocephalides felies) were deposited on a mouse.
Two (2) days after the deposition, the number of dead fleas was examined and the mortality was calculated by the following formula:
Mortality (%)=100×(number of dead fleas/number of fleas tested)

[6] = tested on: Haemaphysalis longicornis (young ticks) on mouse; experiment: Oral administration against mouse-infested ticks; conditions: test solution 20 mg/10 mL at 10 mL per 1 kg mouse body weight, 2 days after administration
Procedure: The previous day of an oral administration, 30 test ticks (Haemaphysalis longicornis, young ticks) were deposited on a mouse. Before the oral administration, uninfested ticks were removed.
as §8, with “group.” for “group. After the administration, 20 test fleas (Ctenocephalides felies) were deposited on a mouse.”
Two (2) days after the administration, the number of dead ticks was examined and the mortality was calculated by the following formula:
Mortality (%)=100×(number of dead ticks/infested ticks before oral administration)

[7] = tested on: Ctenocephalides felis fleas on cat; experiment: Dropping application against cat-infested fleas
Procedure: The previous day of a dropping application, 50 test fleas (Ctenocephalides felis, adult ticks) were deposited on a cat. Before the dropping application, infested flaes were counted.
as §1, with “Each of the” for “The”, “benzylamide” for “hydrazide”, “(specified weight: 0.375 g, 0.75 g and 1.5” for “(1.5”, “cat” for “dog”, “cat's” for “dog's”, “amount: 5 mg/kg, 10 mg/kg and” for “amount:”
Two (2) days after the application, the number of living fleas, which were infesting the cats, was examined. When the examination was completed, all infested fleas were removed from the cats.
as §2, with “14” for “Forty (14)”, “50” for “100”, “fleas (Ctenocephalides felis, adult” for “ticks (Haemaphysalis longicornis, young”, “cat” for “dog (beagle)”
as §3, §4
Infestation rate (%) at X days after application=(number of living fleas at X days/number of living fleas before application)×100
as §6, §7
Infestation rate (%) at X days after application=(number of living fleas at X days/number of living fleas repeatedly deposited)×100
Control rate (%) at X days after application {(infestation rate of placebo group at X days−infestation rate of test group at X days)/infestation rate of placebo group after X days}×100
In addition, if an infestation rate of a test group is higher than a placebo group, then the control rate is deemed to be 0%.

[8] = 16 μg as dry film on inner surface of 20 mL screw bottle, 2 days later, read-out: Mortality

Row | Compound | pest or weed control at 0.1 % strength [1] | mortality at 16 µg/bottle [2, 8] | other results
1 | CCCC(=O)NCc1cc(C2=NOC(c3cc(Cl)cc(Cl)c3)(C(F)(F)F)C2)ccc1Cl (stereo not drawn) [(32)] | ≥ 60% | ≥ 90% | 
2 | O=C(NCc1cc(C2=NOC(c3cc(Cl)cc(Cl)c3)(C(F)(F)F)C2)ccc1Cl)C1CC1 (stereo not drawn) [Compound (13)] | ≥ 60% |  | Tick control rates (%) at X days after the application, X = 2 (days) ([3]; 2 days): 35%; Tick control rates (%) at X days after the application, X = 16 (days) ([3]; 16 days (re-infested at 14 days)): 100%; Tick control rates (%) at X days after the application, X = 30 (days) ([3]; 30 days (re-infested at 28 days)): 100%; Tick control rates (%) at 2 days after the administration [4]: 91%; Mortality [5]: ≥ 70%; mortality at 16 µg/bottle [2]: ≥ 90%; Mortality [6]: ≥ 70%; Flea control rate (%) at X days after the application ([7]; dropping application 5 mg/kg, 2 days): 92%; Flea control rate (%) at X days after the application ([7]; dropping application 5 mg/kg, 16 days): 97%; Flea control rate (%) at X days after the application ([7]; dropping application 5 mg/kg, 30 days): 97%; Flea control rate (%) at X days after the application ([7]; dropping application 10 mg/kg, 2 days): 100%; Flea control rate (%) at X days after the application ([7]; dropping application 10 mg/kg, 16 days): 100%; Flea control rate (%) at X days after the application ([7]; dropping application 10 mg/kg, 30 days): 100%; Flea control rate (%) at X days after the application ([7]; dropping application 20 mg/kg, 2 days): 100%; Flea control rate (%) at X days after the application ([7]; dropping application 20 mg/kg, 16 days): 100%; Flea control rate (%) at X days after the application ([7]; dropping application 20 mg/kg, 30 days): 100%
3 | O=C(CCC(F)(F)F)NCc1cc(C2=NOC(c3cc(Cl)cc(Cl)c3)(C(F)(F)F)C2)ccc1Cl (stereo not drawn) [(29), N-{2-chloro-[5-(3,5-dichlorophenyl)-5-trifluoromethyl-4,5-dihydroisoxazol-3-yl]benzyl}-4,4,4-trifluorobutanamide] | ≥ 60% | ≥ 90% | 
4 | N#CCC(=O)NCc1cc(C2=NOC(c3cc(Cl)cc(Cl)c3)(C(F)(F)F)C2)ccc1Cl (stereo not drawn) [(34), N-{2-chloro-[5-(3,5-dichlorophenyl)-5-trifluoromethyl-4,5-dihydroisoxazol-3-yl]benzyl}cyanoacetamide] | ≥ 60% | ≥ 90% | 
5 | CC(=O)NCc1cc(C2=NOC(c3cc(Cl)cc(Cl)c3)(C(F)(F)F)C2)ccc1Cl (stereo not drawn) [(28), N-{2-chloro-[5-(3,5-dichlorophenyl)-5-trifluoromethyl-4,5-dihydroisoxazol-3-yl]benzyl}acetamide] | ≥ 60% | ≥ 90% | 
6 | O=C(NCc1cc(C2=NOC(c3cc(Cl)cc(Cl)c3)(C(F)(F)F)C2)ccc1Cl)C(F)(F)F (stereo not drawn) [(36), N-{2-chloro-[5-(3,5-dichlorophenyl)-5-trifluoromethyl-4,5-dihydroisoxazol-3-yl]benzyl}trifluoroacetamide] | ≥ 60% |  | 
7 | COCC(=O)NCc1cc(C2=NOC(c3cc(Cl)cc(Cl)c3)(C(F)(F)F)C2)ccc1Cl (stereo not drawn) [(30), N-{2-chloro-[5-(3,5-dichlorophenyl)-5-trifluoromethyl-4,5-dihydroisoxazol-3-yl]benzyl}methoxyacetamide] | ≥ 60% | ≥ 90% | 
8 | CC(C)C(=O)NCc1cc(C2=NOC(c3cc(Cl)cc(Cl)c3)(C(F)(F)F)C2)ccc1Cl (stereo not drawn) [(31), N-{2-chloro-[5-(3,5-dichlorophenyl)-5-trifluoromethyl-4,5-dihydroisoxazol-3-yl]benzyl}isobutyramide] | ≥ 60% | ≥ 90% | 
9 | CC(C)CC(=O)NCc1cc(C2=NOC(c3cc(Cl)cc(Cl)c3)(C(F)(F)F)C2)ccc1Cl (stereo not drawn) [(33), N-{2-chloro-[5-(3,5-dichlorophenyl)-5-trifluoromethyl-4,5-dihydroisoxazol-3-yl]benzyl}isovaleramide] | ≥ 60% | ≥ 90% | 
10 | O=C(NCc1cc(C2=NOC(c3cc(Cl)cc(Cl)c3)(C(F)(F)F)C2)ccc1Cl)C1CCCC1 (stereo not drawn) [(38), N-{2-chloro-[5-(3,5-dichlorophenyl)-5-trifluoromethyl-4,5-dihydroisoxazol-3-yl]benzyl}cyclopentanecarboxamide] | ≥ 60% | ≥ 90% | 
11 | O=C(NCc1cc(C2=NOC(c3cc(Cl)cc(Cl)c3)(C(F)(F)F)C2)ccc1Cl)C1CCC1 (stereo not drawn) [(37), N-{2-chloro-[5-(3,5-dichlorophenyl)-5-trifluoromethyl-4,5-dihydroisoxazol-3-yl]benzyl}cyclobutanecarboxamide] | ≥ 60% | ≥ 90% | 
